Experimental data as given in patent US10544090B2, “Anthraquinone analogs and methods of making and using thereof” (Georgia State University Research Foundation, Inc., priority 2012, dated 2020).
Like-named read-outs stand apart in the source and are kept apart here.

Columns and labels:
Format in all cases: cell-based
[1] = test system: MOLT4; test: Cytotoxicity against cancer cell lines (Example 5), Molt4
Method: (§1) All of the compounds synthesized were tested against a number of cancer cell lines: Hela KB, Cos7, Molt4, K562, EU1, and T98G. The cancer cell lines vary from leukemia cell lines (Molt4, EU, K562) to solid-state tumor cell lines (Hela, KB, Cos7) and the drug resistant cell lines (T98G).

[2] = test system: HeLa; test: Cytotoxicity against cancer cell lines (Example 5), Hela; details: Tables 5-12
Method: as §1

[3] = test system: Cos7; test: Cytotoxicity against cancer cell lines (Example 5), Cos7; details: Tables 5-12
Method: as §1

[4] = test system: T98G; test: Cytotoxicity against cancer cell lines (Example 5), T98G; details: Tables 5-12; drug resistant cell line
Method: as §1

[5] = test system: K562; test: Cytotoxicity against cancer cell lines (Example 5), K562; details: Tables 5-12
Method: as §1

[6] = test system: EU1; test: Cytotoxicity against cancer cell lines (Example 5), EU1; details: Tables 5-12
Method: as §1

[7] = test system: KB; test: Cytotoxicity against cancer cell lines (Example 5), KB; details: Tables 5-12
Method: as §1

[8] = Tables 5-12, read-out: IC50 Molt4

SMILES | IC50 [1, 8] | IC50 [2] | IC50 [3] | IC50 [4] | IC50 [5] | IC50 [6] | IC50 [7] | IC50 ([1]; cell line not given, matches Table 8 Molt4, read-out: IC50 value)
CCOc1cccc2c1C(=O)c1c(OCC)cc(NC(=O)CNC)cc1C2=O [BW-AQ-167] | 21.5 µM | 0.753 µM | 5.51 µM | 11.2 µM | 2.05 µM | 13.6 µM | 1.54 µM | 
C=CCOc1cccc2c1C(=O)c1c(OCC=C)cc(C(=O)N=[N+]=[N-])cc1C2=O [BW-AQ-154] | 6.66 µM | 24.3 µM | 19.4 µM | > 50 µM | 19.5 µM | 3 µM | > 50 µM | 
C=CCOc1cccc2c1C(=O)c1c(OCC=C)cc(NC(=O)CCl)cc1C2=O [BW-AQ-161] | > 10 µM | > 20 µM | > 20 µM | > 50 µM | > 10 µM | > 10 µM | > 20 µM | 
CCOc1cccc2c1C(=O)c1c(OCC)cc(NC(=O)COCc3ccccc3)cc1C2=O [BW-AQ-182] | 16.8 µM | 47.3 µM |  | > 50 µM | > 25 µM | 16.8 µM | > 50 µM | 
CCOc1cccc2c1C(=O)c1c(OCC)cc(NC(=O)CN)cc1C2=O [BW-AQ-166] | > 25 µM | 11 µM |  | 37.3 µM | > 25 µM | > 25 µM | 18.8 µM | 
C=CCOc1cccc2c1C(=O)c1c(OCC=C)cc(C(=O)O)cc1C2=O [BW-AQ-153] | > 25 µM | > 50 µM | > 50 µM | > 50 µM | > 25 µM | > 25 µM | > 50 µM | 
O=C(OCc1ccccc1)c1cc(OCc2ccccc2)c2c(c1)C(=O)c1cccc(OCc3ccccc3)c1C2=O [BW-AQ-148] | > 25 µM | 18.6 µM | > 50 µM | > 50 µM | > 25 µM | > 25 µM | > 50 µM | 
COc1cccc2c1C(=O)c1c(OC)cc(NC(=O)COCc3ccccc3)cc1C2=O [BW-AQ-175] | 25 µM | > 50 µM |  | > 50 µM | > 25 µM | 20.5 µM | 33.6 µM | 
[N-]=[N+]=NCCOc1cccc2c1C(=O)c1c(OCCN=[N+]=[N-])cc(C(=O)N=[N+]=[N-])cc1C2=O [BW-AQ-122] | > 1.6 µM | > 12.5 µM | > 50 µM | > 12.5 µM | > 6.25 µM |  | > 50 µM | 
O=C1c2cccc(O)c2C(=O)c2c(O)cc(-c3cccs3)cc21 [BW-AQ-140] | 0.209 ± 0.044 µM | 3.1 ± 0.68 µM | 2.2 ± 0.41 µM | 13.8 ± 4 µM | 3.2 ± 1.5 µM | 0.69 ± 0.152 µM | 3.4 ± 1.02 µM | 
C=CCOc1cccc2c1C(=O)c1c(OCC=C)cc(N)cc1C2=O [BW-AQ-155] | > 25 µM | ~50 µM | > 50 µM | > 50 µM | > 25 µM | > 25 µM | 12.5 µM | 
COCC(=O)Nc1cc(OC)c2c(c1)C(=O)c1cccc(OC)c1C2=O [BW-AQ-170] | > 25 µM | > 50 µM |  | > 50 µM | > 25 µM | > 25 µM | > 50 µM | 
C=CCOc1cccc2c1C(=O)c1c(OCC=C)cc(NC(=O)CI)cc1C2=O [BW-AQ-163] | > 25 µM | > 50 µM | > 50 µM | > 50 µM | > 25 µM | > 25 µM | 14.7 µM | 
[N-]=[N+]=NCCOc1cccc2c1C(=O)c1c(OCCN=[N+]=[N-])cc(N)cc1C2=O [BW-AQ-123] | > 1.6 µM | > 50 µM |  | > 12.5 µM | > 6.25 µM |  | 20.5 µM | 
COc1cccc2c1C(=O)c1c(OC)cc(NC(=O)CN=[N+]=[N-])cc1C2=O [BW-AQ-137] | > 1.6 µM | 24.6 µM | > 50 µM | > 50 µM | > 6.25 µM |  | 23.6 µM | 
CCOc1cccc2c1C(=O)c1c(OCC)cc(NC(=O)CCCCl)cc1C2=O [BW-AQ-179] | 15.3 µM | 6.25 µM |  | 50 µM | 10.7 µM | 17.6 µM | < 6.25 µM | 
O=C(CBr)Nc1cc(O)c2c(c1)C(=O)c1cccc(OCc3ccccc3)c1C2=O [BW-AQ-127] |  | 5.6 ± 0.63 µM | 1.7 ± 0.43 µM | 13.8 ± 2.5 µM | 1.95 ± 0.58 µM | 0.084 ± 0.058 µM | 5.4 ± 2.5 µM | 0.028 µM
COC(=O)c1cc(OCCN=[N+]=[N-])c2c(c1)C(=O)c1cccc(OCCN=[N+]=[N-])c1C2=O [BW-AQ-120] | > 1.6 µM | > 12.5 µM | ~50 µM | > 12.5 µM | > 6.25 µM |  | > 50 µM | 
Nc1cc(OCc2ccccc2)c2c(c1)C(=O)c1cccc(OCc3ccccc3)c1C2=O [BW-AQ-150] | > 25 µM | ~50 µM | 17 µM | > 50 µM | > 25 µM | > 25 µM | > 50 µM | 
COc1cccc2c1C(=O)c1c(OC)cc(NC(=O)CCCCl)cc1C2=O [BW-AQ-174] | > 25 µM | > 50 µM |  | > 50 µM | > 25 µM | > 25 µM | > 50 µM | 
COc1cccc2c1C(=O)c1c(OC)cc(NC(=O)C(F)F)cc1C2=O [BW-AQ-171] | > 25 µM | > 50 µM |  | > 50 µM | > 25 µM | > 25 µM | 50 µM | 
COc1cccc2c1C(=O)c1c(OC)cc(NS(=O)(=O)CCl)cc1C2=O [BW-AQ-138] | > 1.6 µM | > 50 µM | > 50 µM | > 50 µM | > 6.25 µM |  | > 50 µM | 
CCCOC(=O)c1cc(OCCC)c2c(c1)C(=O)c1cccc(OCCC)c1C2=O [BW-AQ-147] | > 25 µM | > 50 µM |  | > 50 µM | > 25 µM | > 25 µM | > 50 µM | 
[N-]=[N+]=NCCOc1cccc2c1C(=O)c1c(OCCN=[N+]=[N-])cc(C(=O)O)cc1C2=O [BW-AQ-121] | > 1.6 µM | > 12.5 µM | > 50 µM | > 12.5 µM | > 6.25 µM |  | > 50 µM | 
COc1cccc2c1C(=O)c1c(OC)cc(NC(=O)C(F)(F)F)cc1C2=O [BW-AQ-132] | > 1.6 µM | > 50 µM | > 50 µM | > 12.5 µM | > 6.25 µM |  | > 50 µM | 
COc1cccc2c1C(=O)c1c(OC)cc(NC(=O)CC#N)cc1C2=O [BW-AQ-172] | > 25 µM | > 50 µM |  | > 50 µM | > 25 µM | > 25 µM | < 6.25 µM | 
CN1CCN(CC(=O)Nc2cc(O)c3c(c2)C(=O)c2cccc(O)c2C3=O)CC1 [BW-AQ-114] | 0.284 ± 0.021 µM | 3.9 ± 1 µM | 2 ± 0.6 µM | > 12.5 µM | 0.84 ± 0.36 µM |  | 10.2 ± 2.26 µM | 
COc1cccc2c1C(=O)c1c(OC)cc(NC(=O)CCCl)cc1C2=O [BW-AQ-173] | > 25 µM | 50 µM |  | > 50 µM | > 25 µM | 25 µM | 50 µM | 
COc1cccc2c1C(=O)c1c(OC)cc(NC(C)=O)cc1C2=O [BW-AQ-134] | > 1.6 µM | > 50 µM | > 50 µM | > 50 µM | > 6.25 µM |  | > 50 µM | 
